Test results published in the supplement of paper PMC10307832.

What was measured:
Assay in all cases: relative viability (nuclei count vs DMSO), 5 days (fraction); higher = more cells survive
Etoposide + Pemetrexed = compound: COc1cc([C@@H]2c3cc4c(cc3[C@@H](O[C@@H]3O[C@@H]5CO[C@@H](C)O[C@H]5[C@H](O)[C@H]3O)[C@H]3COC(=O)[C@H]23)OCO4)cc(OC)c1O [Etoposide] + Nc1nc2[nH]cc(CCc3ccc(C(=O)N[C@@H](CCC(=O)O)C(=O)O)cc3)c2c(=O)[nH]1 [Pemetrexed] (partner 0.2 µM)
Summary of the method: (§1)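 Relative viability divides the nuclei count in treated wells by that in vehicle wells. Lung cancer cell lines were seeded in 1536-well plates, dosed by pin tool the next day, and fixed and stained after 5 days in one step with final 0.05% Triton X-100, 1% formaldehyde and 1 ug/ml Hoechst. Dosing was a single drug or a fixed anchor-drug dose plus five library-drug doses (not always all listed) in √10 steps, and values are medians of duplicate plates imaged at 4×.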

Etoposide + OSI-027 = compound: COc1cc([C@@H]2c3cc4c(cc3[C@@H](O[C@@H]3O[C@@H]5CO[C@@H](C)O[C@H]5[C@H](O)[C@H]3O)[C@H]3COC(=O)[C@H]23)OCO4)cc(OC)c1O [Etoposide] + COc1cccc2cc(-c3nc([C@H]4CC[C@H](C(=O)O)CC4)n4ncnc(N)c34)[nH]c12 [OSI-027] (partner 0.5 µM)
Summary of the method: as §1

Bleomycin + Foretinib = compound: CC1=C(N=C(N=C1N)[C@H](CC(=O)N)NC[C@@H](C(=O)N)N)C(=O)N[C@@H]([C@H](C2=CN=CN2)OC3C(C(C(C(O3)CO)O)O)OC4C(C(C(C(O4)CO)O)OC(=O)N)O)C(=O)N[C@H](C)[C@H]([C@H](C)C(=O)N[C@@H]([C@@H](C)O)C(=O)NCCC5=NC(=CS5)C6=NC(=CS6)C(=O)NCCC[S+](C)C)O [Bleomycin] + COc1cc2c(Oc3ccc(NC(=O)C4(C(=O)Nc5ccc(F)cc5)CC4)cc3F)ccnc2cc1OCCCN1CCOCC1 [Foretinib] (partner 0.25 µM); settings: main component drawn
Summary of the method: as §1

Etoposide + Lapatinib = compound: COc1cc([C@@H]2c3cc4c(cc3[C@@H](O[C@@H]3O[C@@H]5CO[C@@H](C)O[C@H]5[C@H](O)[C@H]3O)[C@H]3COC(=O)[C@H]23)OCO4)cc(OC)c1O [Etoposide] + CS(=O)(=O)CCNCc1ccc(-c2ccc3ncnc(Nc4ccc(OCc5cccc(F)c5)c(Cl)c4)c3c2)o1 [Lapatinib] (partner 2 µM)
Summary of the method: as §1

Cell Line	relative viability (Etoposide + Pemetrexed; first compound 0.01 µM)	relative viability (Etoposide + Pemetrexed; first compound 0.03162 µM)	relative viability (Etoposide + Pemetrexed; first compound 0.1 µM)	relative viability (Etoposide + Pemetrexed; first compound 0.3162 µM)	relative viability (Etoposide + Pemetrexed; first compound 1 µM)	relative viability (Etoposide + OSI-027; first compound 0.01 µM)	relative viability (Etoposide + OSI-027; first compound 0.03162 µM)	relative viability (Etoposide + OSI-027; first compound 0.1 µM)	relative viability (Etoposide + OSI-027; first compound 0.3162 µM)	relative viability (Etoposide + OSI-027; first compound 1 µM)	relative viability (Bleomycin + Foretinib; first compound 0.01 µM)	relative viability (Bleomycin + Foretinib; first compound 0.03162 µM)	relative viability (Bleomycin + Foretinib; first compound 0.1 µM)	relative viability (Bleomycin + Foretinib; first compound 0.3162 µM)	relative viability (Bleomycin + Foretinib; first compound 1 µM)	relative viability (Etoposide + Lapatinib; first compound 0.01 µM)	relative viability (Etoposide + Lapatinib; first compound 0.03162 µM)	relative viability (Etoposide + Lapatinib; first compound 0.1 µM)	relative viability (Etoposide + Lapatinib; first compound 0.3162 µM)	relative viability (Etoposide + Lapatinib; first compound 1 µM)
NCI-H2023	0.241	0.272	0.182	0.156	0.143	0.4	0.451	0.223	0.286	0.119	0.717	0.641	0.522	0.245	0.162	0.886	0.895	0.293	0.372	0.0709
NCI-H2085	0.769	0.95	0.803	0.907	0.378	0.542	0.705	0.533	0.676	0.373	1.03	0.845	0.692	0.461	0.396	0.777	0.73	0.534	0.599	0.372
NCI-H2087	0.641	0.723	0.703	0.582	0.374	0.514	0.59	0.364	0.386	0.173	–	0.827	0.872	0.205	0.158	–	0.83	0.912	0.551	0.278
NCI-H2126	0.633	0.878	0.591	0.677	0.461	0.742	0.662	–	0.706	0.506	1.17	1.26	1.23	0.903	0.491	0.784	0.756	0.52	0.595	0.383
NCI-H2170	0.285	0.26	–	0.261	0.252	0.697	0.76	0.44	0.736	0.536	0.992	0.98	0.736	0.855	0.829	0.294	0.264	–	0.292	0.23
NCI-H2228	0.375	0.358	0.355	0.299	0.181	0.499	0.787	0.276	0.481	0.164	0.853	0.741	0.695	0.274	0.191	0.84	1.05	0.846	0.703	0.138
NCI-H2347	0.454	0.487	0.401	0.386	0.383	0.365	0.338	0.325	0.358	0.32	0.852	0.97	0.628	0.319	0.692	1.13	0.835	0.547	0.406	0.422
NCI-H2405	1.07	1.14	0.846	0.935	0.365	0.637	0.671	0.49	0.612	0.462	0.929	1.04	0.992	0.796	0.585	1.16	1.24	0.746	0.77	0.275
NCI-H3122	0.21	0.207	0.206	0.19	0.179	0.799	0.985	0.404	0.722	0.349	0.956	0.99	0.914	0.483	0.357	1.09	0.998	0.97	0.91	0.451
PC-3 [JPC-3]	1.1	1.23	1.09	0.977	0.706	0.657	0.731	0.636	0.736	0.689	0.929	1.24	0.95	0.75	0.541	0.432	0.487	0.344	0.475	0.374
PC-14	0.13	0.141	0.168	0.121	0.106	0.815	0.945	0.58	0.587	0.275	0.773	0.566	0.447	0.137	0.0938	0.307	0.349	0.225	0.366	0.229
RERF-LC-KJ	0.454	0.507	0.48	0.434	0.445	0.529	0.615	0.382	0.613	0.429	0.735	0.693	0.633	0.377	0.307	0.882	0.863	0.626	0.828	0.733
SK-LU-1	0.991	0.863	0.817	0.363	0.282	0.358	0.373	0.251	0.174	0.172	0.704	0.874	0.815	0.461	0.365	0.752	0.949	0.375	0.261	0.202
SK-MES-1	0.912	1.02	0.844	0.708	0.256	0.523	0.616	0.544	0.437	0.189	0.907	0.846	0.765	0.357	0.237	0.461	0.538	0.368	0.426	0.272
SW 1573	0.877	0.785	0.397	0.259	0.148	0.707	0.593	0.277	0.265	0.116	0.811	0.813	0.748	0.468	0.308	1.03	1.12	0.576	0.696	0.267
